Test results taken from patent publication US7220775B2, “Compound useful for the treatment of neuropathic pain” (H. Lundbeck A/S, priority 2002, dated 2007).

Assays:
h5HT1A = target: T1, h5HT1A (Homo sapiens, UniProt P08908); assay: 5-HT1A receptor binding (3H-8-OH-DPAT); settings: Table 8
T1 construct: expressed in transfected cells; host or cells: COS-7 cells, transient, vector pCEXV-3
Description: 5-HT1A Receptor: The cDNA corresponding to the 5-HT1A receptor open reading frames and variable non-coding 5′- and 3′-regions, was cloned into the eukaryotic expression vector pCEXV-3. These constructs were transfected transiently into COS-7 cells by the DEAE-dextran method (Cullen, 1987), and harvested after 72 hours. Radioligand binding assays were performed as described above for the 5-HT2A receptor, except that ^3H-8-OH-DPAT was used as the radioligand and nonspecific binding was determined by the addition of 10 μM mianserin.

Human 5HT1B receptor = target: T2, Human 5HT1B receptor (Homo sapiens, UniProt P28222); assay: 5HT1B receptor binding ([3H]-serotonin); settings: Table 8
T2 construct: expressed in transfected cells
Description: Human 5HT1B, 5HT1D, 5HT1E, 5HT1F, and 5HT7 Receptors: The cell lysates of LM(tk−) clonal cell line stably transfected with the genes encoding each of these 5HT receptor-subtypes were prepared as described above. Cell membranes were suspended in 50 mM Tris-HCl buffer (pH 7.4 at 37° C.) containing 10 mM MgCl2, 0.2 mM EDTA, 10 µM pargyline, and 0.1% ascorbate. […] Nonspecific binding was determined in the presence of 10 μM serotonin. The bound radioligand was separated by filtration through GF/B filters using a cell harvester.

h5HT6 = target: T3, h5HT6 (Homo sapiens, UniProt P50406); assay: 5-HT6 receptor binding; settings: Table 8
T3 construct: expressed in transfected cells
Description: Other 5-HT Receptors: Other serotonin receptor binding assays were performed according to published methods: rat 5HT2C receptor (Julius et al., 1988); and 5-HT6 (Monsma, et al., 1993). The binding assays using the 5-HT4 receptor were performed according to the procedures described in U.S. Pat. No. 5,766,879, the disclosure of which is hereby incorporated by reference in its entirety into this application.

[1] = target: NE transporter (rNE Uptk) (Rattus norvegicus, UniProt Q9WTR4); assay: Binding at native NE transporter; settings: Table 7, native transporter
Description: (§1) The binding properties of the compounds of the present invention were evaluated at one or more cloned receptors or native, tissue-derived transporters, using protocols described below.
(§2) The methods to determine binding affinity at native transporters are described in the following publications: 5HT transporter and NE transporter (Owens et al., 1997), and DA transporter (Javitch et al, 1984).

[2] = tested on: NE transporter (rNE Uptk); assay: Binding at native NE transporter; parameters: species or system rat; settings: Table 8
Description: as §1, §2

[3] = target: T4, DA transporter (rDA Uptk) (Rattus norvegicus, UniProt P23977); assay: Binding at native DA transporter; settings: Table 8
T4 construct: native, tissue-derived transporters; from tissue
Description: as §1, §2

[4] = target: T5, human α1D adrenergic receptor (Homo sapiens, UniProt P25100); assay: α1D adrenergic receptor binding; settings: Table 10
T5 construct: expressed in transfected cells
Description: (§3) Other receptors: Cell membranes expressing human dopamine D1, D2, D4 and rat D3 receptors were purchased through BioSignal, Inc. (Montreal, Canada). Binding assays using the histamine H, receptor; dopamine receptors; and α1A, α1B, and α2 adrenergic receptors may be carried out according to the procedures described in U.S. Pat. No. 5,780,485, the disclosure of which is hereby incorporated by reference in its entirety into this application. Binding assays using the dopamine D5 receptor may be carried out according to the procedures described in U.S. Pat. No. 5,882,855, the disclosure of which is hereby incorporated by reference in its entirety into this application. Binding assays for the human α1D adrenergic receptor may be carried out according to the procedures described in U.S. Pat. No. 6,156,518, the disclosure of which is hereby incorporated by reference in its entirety into this application.

human α2A adrenoceptor = target: T6, human α2A adrenoceptor (Homo sapiens, UniProt P08913); assay: α2A adrenergic receptor binding; settings: Table 10
T6 construct: expressed in transfected cells
Description: as §3

human α2B adrenoceptor = target: T7, human α2B adrenoceptor (Homo sapiens, UniProt P18089); assay: α2B adrenergic receptor binding; settings: Table 10
T7 construct: expressed in transfected cells
Description: as §3

human α2C adrenoceptor = target: T8, human α2C adrenoceptor (Homo sapiens, UniProt P18825); assay: α2C adrenergic receptor binding; settings: Table 10
T8 construct: expressed in transfected cells
Description: as §3

rat D3 receptor = target: T9, rat D3 receptor (Rattus norvegicus, UniProt P19020); assay: Dopamine D3 receptor binding; settings: Table 10
T9 construct: purchased BioSignal, Inc. (Montreal, Canada)
Description: as §3

[5] = target: T10, human dopamine D4 receptor (Homo sapiens, UniProt P21917); assay: Dopamine D4 receptor binding; settings: Table 10
T10 construct: purchased BioSignal, Inc. (Montreal, Canada)
Description: as §3

T8 sequence (P18825 whole entry): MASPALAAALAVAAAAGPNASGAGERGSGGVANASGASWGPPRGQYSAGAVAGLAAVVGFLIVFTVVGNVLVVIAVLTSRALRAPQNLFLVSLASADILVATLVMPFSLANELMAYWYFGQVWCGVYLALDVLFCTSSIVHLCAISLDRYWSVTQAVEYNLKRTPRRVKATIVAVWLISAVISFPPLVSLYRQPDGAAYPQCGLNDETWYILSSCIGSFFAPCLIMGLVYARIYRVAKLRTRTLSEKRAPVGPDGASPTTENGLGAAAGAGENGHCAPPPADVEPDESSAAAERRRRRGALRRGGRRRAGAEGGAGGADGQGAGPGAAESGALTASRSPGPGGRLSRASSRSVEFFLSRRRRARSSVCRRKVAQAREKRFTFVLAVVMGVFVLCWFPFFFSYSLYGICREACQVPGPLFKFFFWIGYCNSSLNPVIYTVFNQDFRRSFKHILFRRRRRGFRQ
T2 sequence (P28222 whole entry): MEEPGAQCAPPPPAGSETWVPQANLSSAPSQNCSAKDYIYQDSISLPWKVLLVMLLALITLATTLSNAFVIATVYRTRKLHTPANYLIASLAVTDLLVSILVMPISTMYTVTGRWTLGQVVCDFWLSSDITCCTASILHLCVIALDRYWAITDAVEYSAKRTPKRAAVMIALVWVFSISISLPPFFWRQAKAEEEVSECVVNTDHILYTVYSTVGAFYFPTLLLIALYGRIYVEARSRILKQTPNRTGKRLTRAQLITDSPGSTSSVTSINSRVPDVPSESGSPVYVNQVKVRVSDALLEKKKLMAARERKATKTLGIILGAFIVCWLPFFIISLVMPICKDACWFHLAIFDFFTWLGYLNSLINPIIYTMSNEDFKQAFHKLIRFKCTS
T6 sequence (P08913 whole entry): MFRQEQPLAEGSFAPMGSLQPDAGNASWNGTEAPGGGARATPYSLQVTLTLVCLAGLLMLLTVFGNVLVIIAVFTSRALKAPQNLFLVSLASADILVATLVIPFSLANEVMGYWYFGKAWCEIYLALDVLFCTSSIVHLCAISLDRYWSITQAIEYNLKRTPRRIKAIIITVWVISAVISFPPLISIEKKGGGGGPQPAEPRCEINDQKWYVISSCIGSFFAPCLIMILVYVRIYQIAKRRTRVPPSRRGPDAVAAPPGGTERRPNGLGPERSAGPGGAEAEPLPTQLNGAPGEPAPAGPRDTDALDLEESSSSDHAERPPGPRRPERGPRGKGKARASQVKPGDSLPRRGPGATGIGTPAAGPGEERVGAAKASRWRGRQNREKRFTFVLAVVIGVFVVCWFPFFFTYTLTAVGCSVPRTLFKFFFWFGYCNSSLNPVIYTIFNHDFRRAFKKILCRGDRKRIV
T9 sequence (P19020 whole entry): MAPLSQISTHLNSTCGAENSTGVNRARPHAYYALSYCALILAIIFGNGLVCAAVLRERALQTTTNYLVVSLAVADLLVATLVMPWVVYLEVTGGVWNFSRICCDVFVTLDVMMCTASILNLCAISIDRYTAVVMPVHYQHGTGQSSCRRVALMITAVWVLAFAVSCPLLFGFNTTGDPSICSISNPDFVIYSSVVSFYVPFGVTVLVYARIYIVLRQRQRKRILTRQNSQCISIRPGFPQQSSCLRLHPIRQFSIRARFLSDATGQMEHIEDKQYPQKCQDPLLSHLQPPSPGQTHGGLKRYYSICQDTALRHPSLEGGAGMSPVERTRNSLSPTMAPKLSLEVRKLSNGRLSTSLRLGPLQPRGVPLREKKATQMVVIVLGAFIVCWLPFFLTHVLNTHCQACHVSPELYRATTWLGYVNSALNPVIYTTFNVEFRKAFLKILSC
T5 sequence (P25100 whole entry): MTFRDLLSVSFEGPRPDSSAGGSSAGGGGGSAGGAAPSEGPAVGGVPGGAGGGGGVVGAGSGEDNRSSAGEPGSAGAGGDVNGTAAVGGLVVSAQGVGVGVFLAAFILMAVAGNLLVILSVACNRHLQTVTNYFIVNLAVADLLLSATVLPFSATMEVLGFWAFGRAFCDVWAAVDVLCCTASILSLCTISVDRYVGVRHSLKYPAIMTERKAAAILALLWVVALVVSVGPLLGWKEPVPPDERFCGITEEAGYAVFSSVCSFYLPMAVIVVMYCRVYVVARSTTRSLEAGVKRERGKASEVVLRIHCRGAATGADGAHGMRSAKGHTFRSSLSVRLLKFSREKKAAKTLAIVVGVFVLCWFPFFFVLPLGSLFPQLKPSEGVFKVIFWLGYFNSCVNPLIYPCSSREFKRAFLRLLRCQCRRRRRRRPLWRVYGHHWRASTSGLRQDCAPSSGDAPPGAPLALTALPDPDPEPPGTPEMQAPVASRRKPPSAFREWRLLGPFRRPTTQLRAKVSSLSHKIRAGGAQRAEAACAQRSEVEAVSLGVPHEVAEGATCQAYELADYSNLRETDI
T10 sequence (P21917 whole entry): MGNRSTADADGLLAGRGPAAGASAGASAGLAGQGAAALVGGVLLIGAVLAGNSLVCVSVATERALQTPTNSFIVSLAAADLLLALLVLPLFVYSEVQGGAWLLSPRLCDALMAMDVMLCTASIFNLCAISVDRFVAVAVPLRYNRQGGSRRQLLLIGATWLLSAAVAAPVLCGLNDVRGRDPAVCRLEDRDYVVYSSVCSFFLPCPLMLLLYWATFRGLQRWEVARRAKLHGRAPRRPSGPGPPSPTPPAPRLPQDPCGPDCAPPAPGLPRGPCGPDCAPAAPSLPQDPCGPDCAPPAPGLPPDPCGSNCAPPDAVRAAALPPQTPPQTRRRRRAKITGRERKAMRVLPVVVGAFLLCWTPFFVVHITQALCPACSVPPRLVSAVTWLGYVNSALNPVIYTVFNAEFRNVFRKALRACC
T1 sequence (P08908 whole entry): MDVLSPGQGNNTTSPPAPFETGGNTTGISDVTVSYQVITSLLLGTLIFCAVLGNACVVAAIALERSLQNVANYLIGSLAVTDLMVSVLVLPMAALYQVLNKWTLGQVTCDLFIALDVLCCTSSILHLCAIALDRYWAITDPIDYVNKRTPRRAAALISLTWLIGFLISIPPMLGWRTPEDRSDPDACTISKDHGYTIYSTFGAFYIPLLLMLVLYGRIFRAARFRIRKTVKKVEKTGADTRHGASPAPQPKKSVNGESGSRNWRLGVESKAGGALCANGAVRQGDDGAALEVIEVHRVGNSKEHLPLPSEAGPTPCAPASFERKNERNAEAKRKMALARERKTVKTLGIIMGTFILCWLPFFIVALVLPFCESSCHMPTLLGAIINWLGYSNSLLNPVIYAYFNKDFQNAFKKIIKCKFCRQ
T4 sequence (P23977 whole entry): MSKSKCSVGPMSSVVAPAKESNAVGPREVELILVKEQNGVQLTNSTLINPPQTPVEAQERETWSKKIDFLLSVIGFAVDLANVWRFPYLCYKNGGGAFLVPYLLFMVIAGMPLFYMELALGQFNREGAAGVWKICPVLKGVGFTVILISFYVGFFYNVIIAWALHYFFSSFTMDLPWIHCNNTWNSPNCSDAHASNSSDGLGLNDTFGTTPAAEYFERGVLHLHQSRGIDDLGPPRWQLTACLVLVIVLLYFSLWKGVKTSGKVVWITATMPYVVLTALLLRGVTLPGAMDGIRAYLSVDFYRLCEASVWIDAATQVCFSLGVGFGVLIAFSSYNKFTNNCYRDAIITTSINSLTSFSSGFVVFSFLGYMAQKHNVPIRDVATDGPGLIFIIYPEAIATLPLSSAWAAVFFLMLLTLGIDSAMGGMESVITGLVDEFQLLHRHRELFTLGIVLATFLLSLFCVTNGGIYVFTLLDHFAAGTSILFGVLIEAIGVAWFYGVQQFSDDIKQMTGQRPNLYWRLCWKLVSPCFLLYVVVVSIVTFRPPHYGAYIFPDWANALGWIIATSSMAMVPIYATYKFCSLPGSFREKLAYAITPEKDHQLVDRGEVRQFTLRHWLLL
T3 sequence (P50406 whole entry): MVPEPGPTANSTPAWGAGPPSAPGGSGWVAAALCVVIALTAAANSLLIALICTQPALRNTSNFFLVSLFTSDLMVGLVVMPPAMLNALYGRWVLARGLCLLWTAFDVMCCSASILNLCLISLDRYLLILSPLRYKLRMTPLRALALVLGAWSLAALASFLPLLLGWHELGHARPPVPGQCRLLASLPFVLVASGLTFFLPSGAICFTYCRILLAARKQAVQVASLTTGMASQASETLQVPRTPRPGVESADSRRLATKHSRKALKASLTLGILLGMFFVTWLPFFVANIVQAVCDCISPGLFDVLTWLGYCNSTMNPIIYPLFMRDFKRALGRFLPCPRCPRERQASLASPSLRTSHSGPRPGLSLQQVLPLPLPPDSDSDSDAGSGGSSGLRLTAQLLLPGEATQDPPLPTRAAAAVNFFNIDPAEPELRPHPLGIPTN
T7 sequence (P18089 whole entry): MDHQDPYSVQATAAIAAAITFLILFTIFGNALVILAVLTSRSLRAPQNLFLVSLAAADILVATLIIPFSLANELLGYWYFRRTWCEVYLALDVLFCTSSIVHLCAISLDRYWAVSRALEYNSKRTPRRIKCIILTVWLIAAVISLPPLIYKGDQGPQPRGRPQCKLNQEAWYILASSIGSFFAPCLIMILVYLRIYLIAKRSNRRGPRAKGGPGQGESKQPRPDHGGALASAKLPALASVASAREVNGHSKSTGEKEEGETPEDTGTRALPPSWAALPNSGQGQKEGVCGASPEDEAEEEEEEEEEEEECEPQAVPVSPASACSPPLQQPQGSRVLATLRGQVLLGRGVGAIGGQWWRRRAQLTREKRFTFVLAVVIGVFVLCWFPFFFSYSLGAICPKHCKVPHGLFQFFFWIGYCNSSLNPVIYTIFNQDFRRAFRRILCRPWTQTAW

O=C1C(=Nc2cccc(C(F)(F)F)c2)c2ccccc2N1c1ccccc1 [Example 92, 1-PHENYL-3-[[3-(TRIFLUOROMETHYL)PHENYL]IMINO]-1,3-DIHYDRO-2H-INDOL-2-ONE]
33.9 µM: Ki [1]
>100: selectivity ratio h5HT1A (Ki h5HT1A / Ki hGAL3) (h5HT1A) | selectivity ratio h5HT1B (Ki h5HT1B / Ki hGAL3) (Human 5HT1B receptor) | selectivity ratio h5HT6 (Ki h5HT6 / Ki hGAL3) (h5HT6) | selectivity ratio rNE Uptk (Ki rNE Uptk / Ki hGAL3) [2] | selectivity ratio rDA Uptk (Ki rDA Uptk / Ki hGAL3) [3] | selectivity ratio hα1D (Ki hα1D / Ki hGAL3) [4] | selectivity ratio hα2A (Ki hα2A / Ki hGAL3) (human α2A adrenoceptor) | selectivity ratio hα2B (Ki hα2B / Ki hGAL3) (human α2B adrenoceptor) | selectivity ratio hα2C (Ki hα2C / Ki hGAL3) (human α2C adrenoceptor) | selectivity ratio rD3 (Ki rD3 / Ki hGAL3) (rat D3 receptor) | selectivity ratio hD4 (Ki hD4 / Ki hGAL3) [5]
